Test results taken from US5030629A, “Compositions and method comprising heterocyclic compounds containing two heteroatoms as membrane penetration enhancers” (priority 1989, dated 1991).
Read-outs that look alike come from different tables or passages of the source.

Assays:
[1] = format: in vitro ADME, human
Method: Sci. 75, 1094 (1986). […] All formulations were studied in triplicate.
Example 39 was repeated with 1% Diclofenac gel, with and without compound of Example 21, was evaluated. The aliquots were analyzed by U.V. Spectrophotometry and average cumulative amount of drug permeating over 24 hours was calculated.

[2] = patch, 5% ES, control without enhancer; receptor ethanol/saline (3:7)
Method: The compounds of the present invention were tested in vitro as penetration enhancers according to the procedure outlined below. The penetration enhancers were formulated with pharmacologically active agents in creams and patches.
Human stratum corneum was isolated from full thickness human skin as described by Bronaugh et. al., J. Pharm. […] The skin was placed between the donor and the receptor compartments of diffusion cells in such a way that the dermal side of the skin faced the receptor compartment which was filled with normal saline (pH 7.2-7.4) or appropriate releasing media. The stratum corneum was equilibrated at 37° C. overnight prior to the application of a topical formulation or a transdermal patch. All formulations were studied in triplicate.
(§4) The entire contents of the receptor compartment were removed at specific time intervals for duration of the study period and replenished with fresh saline.
Procedure of Example 39 was repeated with the following 17B-Estradiol (ES) patch formulations. Normal saline in the receptor compartment was replaced by ethanol/saline (3:7).

[3] = Penetration of 5-fluorouracil through hairless mouse skin in diffusion cells; format: in vitro ADME, hairless mice; conditions: for % Penetration (5-Fluorouracil): 1% 5-Fluorouracil, 2% enhancer
Method: (§1) The skin was incubated at 37° C. and the ambient humidity.
(§2) 100 microliters of the solution containing 1 mg of test drug was applied to the epidermal surface within the donor compartment. The entire contents from the 4.2 ml receptor compartment bathing the corium were removed for analysis at 5 or 6, 12 and 24 hours intervals. In each case, the receptor compartment was refilled with 4.2 ml of fresh normal saline.
(§3) The aliquots removed after 5 or 6, 12 and 24 hours were analyzed by HPLC using a C-18 reverse phase column.
The compounds of Examples 8 was tested as penetration enhancers according to the procedure outlined under Example 49.

[4] = Penetration of hydrocortisone through hairless mouse skin in diffusion cells; format: in vitro ADME, hairless mice; conditions: for % Penetration (hydrocortisone): 1% hydrocortisone, 2% 1,2-propanediol, 2% enhancer, average for two cells; for penetration enhancing properties as compared to the control (hydrocortisone): in words
Method: The compounds of Examples 8 and 13 were tested as penetration enhancing agents according to the procedure below:
as §1, §2, §3

[5] = Examples 51-62 repeated with other penetration enhancers; comparison as penetration enhancing agents; conditions: in words
Hygroscopicity = format: physicochemical
Method: 34 g (127 mmoles) 1-(2-Hyrdoxyethyl)-2-undecyl-2-imidazoline was dissolved in 300 ml of hexane and 8.5 g […] of acetic acid in 50 ml of hexane were reacted. The precipitate was filtered and then dried at 40°-50° C. under high vacuum for 5 hours. Yield 40.7 g (97.8%).

[6] = patch, 3% PG, control without enhancer, receptor ethanol/saline (3:7)
Method: The skin was placed between the donor and the receptor compartments of diffusion cells in such a way that the dermal side of the skin faced the receptor compartment which was filled with normal saline (pH 7.2-7.4) or appropriate releasing media. The stratum corneum was equilibrated at 37° C. overnight prior to the application of a topical formulation or a transdermal patch. All formulations were studied in triplicate.
as §4
Procedure of Example 39 was repeated with the following two sets of Progesterone (PG) patch formulations. Normal saline in the receptor compartment was replaced with ethanol/saline (3:7).

O=C(O)Cc1ccccc1Nc1c(Cl)cccc1Cl [Diclofenac, reference compound]
Average Cumulative Amount of Diclofenac in Micrograms permeating over 24 hours [1]: 106.7 ± 33.5 Micrograms

C[C@]12CC[C@@H]3c4ccc(O)cc4CC[C@H]3[C@@H]1CC[C@@H]2O [ES, 17B-Estradiol]
Average Cumulative Amount of ES in Micrograms Permeating over 51 Hours [2]: 30.90 ± 1.00 Micrograms

CCCCCCCCCCCC1=NC(C)(C)CO1 [Example 8, 4,4-dimethyl-2-undecyl-2-oxazoline]
% Penetration (5-Fluorouracil) ([3]; 6 hrs): 59.2%
% Penetration (5-Fluorouracil) ([3]; 12 hrs): 60.3%
% Penetration (5-Fluorouracil) ([3]; 24 hrs): 60.5%
penetration enhancement compared to the control (5-Fluorouracil) ([3]; in words): superior to the control
% Penetration (hydrocortisone) ([4]; 6 hrs): 16.1%
% Penetration (hydrocortisone) ([4]; 12 hrs): 28.2%
% Penetration (hydrocortisone) ([4]; 24 hrs): 49.1%
penetration enhancing properties as compared to the control (hydrocortisone) [4]: far superior penetration enhancing properties

CCCCCCCCCCCC1=NC(C)(CO)CO1 (centres unmarked) [Example 13, 4-hydroxymethyl-4-methyl-2-undecyl-2-oxazoline]
% Penetration (hydrocortisone) ([4]; 6 hrs): 8.8%
% Penetration (hydrocortisone) ([4]; 12 hrs): 17.3%
% Penetration (hydrocortisone) ([4]; 24 hrs): 34.9%
penetration enhancing properties as compared to the control (hydrocortisone) [4]: far superior penetration enhancing properties

CCCCCCCCCCC1COC(C(F)(F)F)=N1 (centres unmarked) [Example 21, 4-Decyl-2-trifluoromethyl-2-oxazoline]
penetration enhancing, compared with the prior art and the other examples [5]: significantly superior penetration enhancing agents
permeation of Diclofenac through human skin compared to control [1]: increases the permeation

CCCCCCCCCCCC1=NCCN1CCO [Example 37, 1-(2-Hyrdoxyethyl)-2-undecyl-2-imidazoline acetate]
behaviour upon absorbing moisture (Hygroscopicity): hydrated to a gel upon absorbing moisture
hygroscopicity (hydroscopic [sic]) (Hygroscopicity): hydroscopic

CC(=O)[C@H]1CC[C@H]2[C@@H]3CCC4=CC(=O)CC[C@]4(C)[C@H]3CC[C@]12C [PG, Progesterone]
Average Cumulative Amount of PG in Micrograms Permeating over 51 Hours ([6]; SET A): 176.3 ± 92.0 Micrograms
Average Cumulative Amount of PG in Micrograms Permeating over 51 Hours ([6]; SET B): 25 ± 17 Micrograms
